Non-standard residues stand in square brackets, D forms with d. Residues, ends and D or L forms follow the SMILES beside them. *: point of attachment. Asu = N[C@@H](CCCCCC(=O)O)C(=O)O; NHOH = ON*
System: histone-deacetylase
Experiment: Histone acetylation in cells treated with CHAP31 (Western blotting)
Type: cell-based
Conditions: 1 μM, 24 hours, detected with Clone-1 antibody
Protocol: Five types of cells, B16/BL6, MOLT-4F, HeLa-S3, COS-1, and COS-7 were treated with, 1 μM of histone-deacetylase inhibitor, CHAP31, for 24 hours, and then cell lysates were prepared and developed on an electrophoresis, followed by detecting acetylated proteins using the above four antibodies as primary antibodies. In FIGS. 2, A, B, C, and D indicate the results of the detections using Clone-1, Clone-2, Clone-3, and Clone-4, respectively. The concentration of the primary antibodies used for the Western blotting were 107 ng/ml, 65.7 ng/ml, 258 ng/ml, and 158 ng/ml, respectively, and each of these concentration provide the same reactivity (A492=1) in ELISA where acetylated bovine serum albumin was immobilized. The total cell lysates were prepared from the cells (+) after subjecting each cell in the 1 μM CHAP31 treatment for 24 hours or the cells (−) without the treatment. In each lane, 20 μg of protein was loaded. Five types of cells being used were 1: B16/BL6, 2: MOLT-4F, 3: HeLa-S3, 4: COS-1, and 5: COS-7, respectively.

For `CC[C@H](C)[C@@H]1NC(=O)[C@@H](Cc2ccc(OC)cc2)NC(=O)[C@H](CCCCCC(=O)NO)NC(=O)[C@H]2CCCN2C1=O` [CHAP31] (cyclo([Asu](NHOH)[dY](Me)I[dP])), the acetylation of histone was “increased”.
